Test results as given in US9663508B2, “Biaryl acyl-sulfonamide compounds as sodium channel inhibitors” (AMGEN INC., priority 2013, dated 2017).

What follows are molecules tested against human Nav1.7 (Homo sapiens (Human), UniProt Q15858) (assay: Nav 1.7 in vitro PatchXpress (PX) assay). Conditions: not given.
Assay type: cell-based

Chain of human Nav1.7 (Q15858 whole entry): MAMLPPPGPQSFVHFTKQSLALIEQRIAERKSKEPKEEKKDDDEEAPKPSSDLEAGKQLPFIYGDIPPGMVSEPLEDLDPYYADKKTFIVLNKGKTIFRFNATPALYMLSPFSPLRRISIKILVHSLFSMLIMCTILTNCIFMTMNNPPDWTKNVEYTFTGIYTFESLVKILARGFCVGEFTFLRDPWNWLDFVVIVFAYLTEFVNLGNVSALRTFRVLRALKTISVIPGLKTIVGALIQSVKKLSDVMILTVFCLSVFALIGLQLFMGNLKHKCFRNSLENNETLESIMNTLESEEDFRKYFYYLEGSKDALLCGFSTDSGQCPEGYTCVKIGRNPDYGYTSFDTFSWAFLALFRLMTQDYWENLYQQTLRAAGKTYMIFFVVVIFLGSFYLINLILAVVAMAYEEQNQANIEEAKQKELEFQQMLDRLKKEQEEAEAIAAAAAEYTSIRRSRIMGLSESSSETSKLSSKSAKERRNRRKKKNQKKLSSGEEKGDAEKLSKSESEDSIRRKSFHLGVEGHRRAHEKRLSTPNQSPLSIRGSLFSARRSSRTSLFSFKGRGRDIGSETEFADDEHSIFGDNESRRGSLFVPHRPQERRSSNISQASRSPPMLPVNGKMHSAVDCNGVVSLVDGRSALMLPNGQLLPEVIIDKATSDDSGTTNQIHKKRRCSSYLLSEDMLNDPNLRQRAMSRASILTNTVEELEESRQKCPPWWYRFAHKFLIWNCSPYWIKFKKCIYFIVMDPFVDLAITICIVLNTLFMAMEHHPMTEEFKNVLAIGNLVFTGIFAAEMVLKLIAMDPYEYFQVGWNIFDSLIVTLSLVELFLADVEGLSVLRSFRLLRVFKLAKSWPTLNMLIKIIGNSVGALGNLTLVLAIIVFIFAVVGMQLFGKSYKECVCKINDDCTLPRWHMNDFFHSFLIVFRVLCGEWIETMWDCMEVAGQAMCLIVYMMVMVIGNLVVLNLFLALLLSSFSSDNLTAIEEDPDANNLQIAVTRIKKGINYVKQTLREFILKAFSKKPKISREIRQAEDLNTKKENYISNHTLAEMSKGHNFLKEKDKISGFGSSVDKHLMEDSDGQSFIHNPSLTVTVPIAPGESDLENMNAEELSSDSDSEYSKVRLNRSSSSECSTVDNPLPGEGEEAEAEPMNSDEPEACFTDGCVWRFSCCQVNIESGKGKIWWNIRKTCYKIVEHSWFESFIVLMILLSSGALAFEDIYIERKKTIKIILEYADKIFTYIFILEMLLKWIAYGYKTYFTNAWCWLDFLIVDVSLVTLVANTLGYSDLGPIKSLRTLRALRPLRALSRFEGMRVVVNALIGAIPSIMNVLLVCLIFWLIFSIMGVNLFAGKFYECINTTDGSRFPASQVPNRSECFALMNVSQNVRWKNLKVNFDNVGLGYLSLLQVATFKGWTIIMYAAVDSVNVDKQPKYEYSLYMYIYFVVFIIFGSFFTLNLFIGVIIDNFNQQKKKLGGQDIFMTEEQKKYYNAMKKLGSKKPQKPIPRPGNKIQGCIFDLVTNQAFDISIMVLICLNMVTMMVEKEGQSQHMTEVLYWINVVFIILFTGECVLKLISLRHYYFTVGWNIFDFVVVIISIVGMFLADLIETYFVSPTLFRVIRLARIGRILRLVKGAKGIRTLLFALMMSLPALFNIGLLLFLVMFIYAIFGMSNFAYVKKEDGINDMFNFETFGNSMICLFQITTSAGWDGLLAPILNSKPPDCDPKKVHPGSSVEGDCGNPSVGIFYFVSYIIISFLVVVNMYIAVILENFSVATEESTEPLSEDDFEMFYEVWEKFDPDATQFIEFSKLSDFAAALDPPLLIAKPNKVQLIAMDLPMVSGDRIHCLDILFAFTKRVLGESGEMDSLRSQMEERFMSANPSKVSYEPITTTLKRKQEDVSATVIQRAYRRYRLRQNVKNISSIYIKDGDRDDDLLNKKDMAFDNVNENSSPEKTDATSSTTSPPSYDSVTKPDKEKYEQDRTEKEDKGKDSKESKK

| IC50 [nM] | Compound |
| --- | --- |
| 83.7 | Cc1cc(C(=O)NS(C)(=O)=O)c(F)cc1-c1cnc(Oc2c(F)ccc(Cl)c2F)c(Cl)c1 [Example 625, 4-(5-chloro-6-(3-chloro-2,6-difluorophenoxy)-3-pyridinyl)-2-fluoro-5-methyl-N-(methylsulfonyl)benzamide] |
| 96.6 | COc1cc(C(=O)NS(C)(=O)=O)ccc1-c1cnc(Oc2ccc(F)cc2C)c(Cl)c1 [Example 361, 4-(5-chloro-6-(4-fluoro-2-methylphenoxy)-3-pyridinyl)-3-methoxy-N-(methylsulfonyl)benzamide] |
| 104 | Cc1cc(C(=O)NS(C)(=O)=O)c(F)cc1-c1cnc(Oc2cccc3c2CCCC3)c(Cl)c1 [Example 610, 4-(5-chloro-6-(5,6,7,8-tetrahydro-1-naphthalenyloxy)-3-pyridinyl)-2-fluoro-5-methyl-N-(methylsulfonyl)benzamide] |
| 46.9 | COc1cc(C(=O)NS(C)(=O)=O)ccc1-c1cnc(Oc2cccc(Cl)c2C)c(C#N)c1 [Example 690, 4-(6-(3-chloro-2-methylphenoxy)-5-cyano-3-pyridinyl)-3-methoxy-N-(methylsulfonyl)benzamide] |
| 33.7 | CS(=O)(=O)NC(=O)c1ccc(-c2cnc(Oc3cc(Cl)cc(Cl)c3)c(Cl)c2)c(OC(F)F)c1 [Example 461, 4-(5-chloro-6-(3,5-dichlorophenoxy)-3-pyridinyl)-3-(difluoromethoxy)-N-(methylsulfonyl)benzamide] |
| 53.5 | Cc1cccc(Cl)c1Oc1ncc(-c2ccc(C(=O)NS(C)(=O)=O)cc2OC(F)F)cc1Cl [Example 468, 4-(5-chloro-6-(2-chloro-6-methylphenoxy)-3-pyridinyl)-3-(difluoromethoxy)-N-(methylsulfonyl)benzamide] |
| 143 | Cc1cc(C(=O)NS(C)(=O)=O)c(F)cc1-c1cnc(Oc2ccc(F)cc2F)c(Cl)c1 [Example 603, 4-(5-chloro-6-(2,4-difluorophenoxy)-3-pyridinyl)-2-fluoro-5-methyl-N-(methylsulfonyl)benzamide] |
| 111 | Cc1cc(C(=O)NS(C)(=O)=O)c(F)cc1-c1cnc(OCCC2CC2)c(Cl)c1 [Example 683, 4-(5-chloro-6-(2-cyclopropylethoxy)-3-pyridinyl)-2-fluoro-5-methyl-N-(methylsulfonyl)benzamide] |
| 54.6 | COc1cc(C(=O)NS(C)(=O)=O)ccc1-c1cnc(Oc2cc(Cl)ccc2C)c(Cl)c1 [Example 379, 4-(5-chloro-6-(5-chloro-2-methylphenoxy)-3-pyridinyl)-3-methoxy-N-(methylsulfonyl)benzamide] |
| 83.7 | Cc1cc(C(=O)NS(C)(=O)=O)c(F)cc1-c1cnc(Oc2cccc(C(F)(F)F)c2C)c(Cl)c1 [Example 677, 4-(5-chloro-6-(2-methyl-3-(trifluoromethyl)phenoxy)-3-pyridinyl)-2-fluoro-5-methyl-N-(methylsulfonyl)benzamide] |
| 58.6 | CC[C@H](Oc1ncc(-c2cc(F)c(C(=O)NS(C)(=O)=O)cc2C)cc1Cl)c1cccc(Cl)c1 [Example 676, 4-(5-chloro-6-(((1S)-1-(3-chlorophenyl)propyl)oxy)-3-pyridinyl)-2-fluoro-5-methyl-N-(methylsulfonyl)benzamide] |
| 91.5 | COc1cc(C(=O)NS(C)(=O)=O)ccc1-c1cnc(Oc2ccc(C)cc2Cl)c(Cl)c1 [Example 344, 4-(5-chloro-6-(2-chloro-4-methylphenoxy)-3-pyridinyl)-3-methoxy-N-(methylsulfonyl)benzamide] |
| 83.8 | COc1cc(C(=O)NS(C)(=O)=O)ccc1-c1cnc(Oc2ccc(Cl)cc2Cl)c(C#N)c1 [Example 691, 4-(5-cyano-6-(2,4-dichlorophenoxy)-3-pyridinyl)-3-methoxy-N-(methylsulfonyl)benzamide] |
| 75 | Cc1cccc(Cl)c1Oc1ncc(-c2ccc(C(=O)NS(C)(=O)=O)cc2OC2COC2)cc1Cl [Example 426, 4-(5-chloro-6-(2-chloro-6-methylphenoxy)-3-pyridinyl)-N-(methylsulfonyl)-3-(3-oxetanyloxy)benzamide] |
| 60.3 | Cc1cc(Oc2ncc(-c3ccc(C(=O)NS(C)(=O)=O)cc3OC(F)F)cc2Cl)ccc1Cl [Example 453, 4-(5-chloro-6-(4-chloro-3-methylphenoxy)-3-pyridinyl)-3-(difluoromethoxy)-N-(methylsulfonyl)benzamide] |
| 69.7 | Cc1ccc(Oc2ncc(-c3ccc(C(=O)NS(C)(=O)=O)cc3OC(F)F)cc2Cl)c(Cl)c1 [Example 465, 4-(5-chloro-6-(2-chloro-4-methylphenoxy)-3-pyridinyl)-3-(difluoromethoxy)-N-(methylsulfonyl)benzamide] |
| 108 | Cc1cccc(Oc2ncc(-c3cc(F)c(C(=O)NS(C)(=O)=O)cc3C)cc2Cl)c1 [Example 621, 4-(5-chloro-6-(3-methylphenoxy)-3-pyridinyl)-2-fluoro-5-methyl-N-(methylsulfonyl)benzamide] |
| 31.3 | CS(=O)(=O)NC(=O)c1ccc(-c2cnc(Oc3cc(Cl)cc(Cl)c3)c(Cl)c2)c(OC2COC2)c1 [Example 422, 4-(5-chloro-6-(3,5-dichlorophenoxy)-3-pyridinyl)-N-(methylsulfonyl)-3-(3-oxetanyloxy)benzamide] |
| 82.3 | COc1cc(C(=O)NS(C)(=O)=O)ccc1-c1cnc(Oc2c(C)cccc2Cl)c(Cl)c1 [Example 327, 4-(5-chloro-6-(2-chloro-6-methylphenoxy)-3-pyridinyl)-3-methoxy-N-(methylsulfonyl)benzamide] |
| 22.1 | COc1cc(C(=O)NS(C)(=O)=O)ccc1-c1cnc(Oc2c(Cl)cc(C)cc2Cl)c(C#N)c1 [Example 693, 4-(5-cyano-6-(2,6-dichloro-4-methylphenoxy)-3-pyridinyl)-3-methoxy-N-(methylsulfonyl)benzamide] |

Same assay, conditions: in-vitro Nav 1.7 PX data

| IC50 [nM] | Compound |
| --- | --- |
| 6560 | COc1cc(C(=O)NS(C)(=O)=O)ccc1-c1cnc(COc2ccc(C#N)cc2)c(Cl)c1 [Example 819, 4-(5-Chloro-6-((4-Cyanophenoxy)Methyl)-Pyridin-3-yl)-3-Methoxy-N-(Methylsulfonyl)Benzamide] |
| 83.8 | COc1cc(C(=O)NS(C)(=O)=O)c(F)cc1-c1cnc(O[C@@H](C)Cc2ccccc2)c(Cl)c1 [Example 758, 4-(5-chloro-6-((1S)-1-methyl-2-phenylethoxy)-3-pyridinyl)-2-fluoro-5-methoxy-N-(methylsulfonyl)benzamide] |
| 95.5 | CC[C@H](Oc1ncc(-c2cc(F)c(C(=O)NS(C)(=O)=O)cc2OC)cc1Cl)C(F)(F)F [Example 768, 4-(5-chloro-6-(((1S)-1-(trifluoromethyl)propyl)oxy)-3-pyridinyl)-2-fluoro-5-methoxy-N-(methylsulfonyl)benzamide] |
| 89 | COc1cc(C(=O)NS(C)(=O)=O)c(F)cc1-c1cnc(OC(C)C2CCC2)c(Cl)c1 (centres unmarked) [Example 719, 4-(5-Chloro-6-(1-Cyclobutylethoxy)Pyridin-3-yl)-2-Fluoro-5-Methoxy-N-(Methylsulfonyl)Benzamide] |
| 647 | Cc1cc(C(=O)NS(C)(=O)=O)c(F)cc1-c1ccc2c(c1)OC(F)(F)O2 [Example 809, 4-(2,2-difluoro-1,3-benzodioxol-5-yl)-2-fluoro-5-methyl-N-(methylsulfonyl)benzamide] |
| 618 | Cc1cc(C(=O)NS(C)(=O)=O)c(F)cc1-c1ccc(Cl)c(C(F)(F)F)c1 [Example 806, 4′-Chloro-5-Fluoro-2-Methyl-N-(Methylsulfonyl)-3′-(Trifluoromethyl)-4-Biphenylcarboxamide] |
| 169 | Cc1cc(C(=O)NS(C)(=O)=O)c(F)cc1-c1cnc(Oc2cc(Cl)cc(Cl)c2)c(C(F)(F)F)c1 [Example 817, 4-(6-(3,5-Dichlorophenoxy)-5-(Trifluoromethyl)Pyridin-3-yl)-2-Fluoro-5-Methyl-N-(Methylsulfonyl)Benzamide] |
| 69.5 | COc1cc(C(=O)NS(C)(=O)=O)c(F)cc1-c1cnc(Sc2cc(C)cc(C)c2)c(Cl)c1 [Example 729, 4-(5-chloro-6-((3,5-dimethylphenyl)sulfanyl)-3-pyridinyl)-2-fluoro-5-methoxy-N-(methylsulfonyl)benzamide] |
| 84 | CC[C@@H](Oc1ncc(-c2cc(F)c(C(=O)NS(C)(=O)=O)cc2OC)cc1Cl)C(F)(F)F [Example 736, 4-(5-chloro-6-(((1R)-1-(trifluoromethyl)propyl)oxy)-3-pyridinyl)-2-fluoro-5-methoxy-N-(methylsulfonyl)benzamide] |
| 179 | Cc1cc(C(=O)NS(C)(=O)=O)c(F)cc1-c1cnc(Oc2cc(Cl)cc(Cl)c2)c(C(F)F)c1 [Example 823, 4-(6-(3,5-Dichlorophenoxy)-5-(Difluoromethyl)Pyridin-3-yl)-2-Fluoro-5-Methyl-N-(Methyl Sulfonyl)Benzamide] |
| 66.9 | CCS(=O)(=O)NC(=O)c1ccc(-c2cnc(Oc3cccc(Cl)c3C)c(Cl)c2)c(OC)c1 [Example 789, 4-(5-chloro-6-(3-chloro-2-methylphenoxy)-3-pyridinyl)-N-(ethylsulfonyl)-3-methoxybenzamide] |
| 84.9 | COc1cc(C(=O)NS(C)(=O)=O)c(F)cc1-c1cnc(Oc2cccc(Cl)c2)c(Cl)c1 [Example 765, 4-(5-chloro-6-(3-chlorophenoxy)-3-pyridinyl)-2-fluoro-5-methoxy-N-(methylsulfonyl)benzamide] |
| 55.6 | CS(=O)(=O)NC(=O)c1cc(OC(F)F)c(-c2cnc(OCc3ccc(Cl)cc3)c(Cl)c2)cc1F [Example 786, 4-(5-chloro-6-((4-chlorobenzyl)oxy)-3-pyridinyl)-5-(difluoromethoxy)-2-fluoro-N-(methylsulfonyl)benzamide] |
| 84.4 | COc1cc(C(=O)NS(C)(=O)=O)c(F)cc1-c1cnc(N[C@@H]2CC23CCCC3)c(Cl)c1 [Example 720, 4-(5-chloro-6-((1R)-spiro[2.4]hept-1-ylamino)-3-pyridinyl)-2-fluoro-5-methoxy-N-(methylsulfonyl)benzamide, 4-(5-chloro-6-((1S)-spiro[2.4]hept-1-ylamino)-3-pyridinyl)-2-fluoro-5-methoxy-N-(methylsulfonyl)benzamide] |
| 44.5 | Cc1c(Cl)cccc1Oc1ncc(-c2cc(F)c(C(=O)NS(C)(=O)=O)cc2OC(F)F)cc1Cl [Example 780, 4-(5-chloro-6-(3-chloro-2-methylphenoxy)-3-pyridinyl)-5-(difluoromethoxy)-2-fluoro-N-(methylsulfonyl)benzamide] |
